Where “and” joins values, the source holds several entries; their conditions need not be identical. Equal values may be shown once.
System: BDF1 mice, Adenocarcinoma 755 s.c., tumor weight T/C
Assay: NCI In Vivo Anticancer Drug Screen. Data for tumor model Adenocarcinoma 755 (subcutaneous) in B6D2F1 (BDF1) mice
Details: endpoint: mean tumor weight, schedule: Q01DX011 (ip), higher = larger tumour
Summary of the method: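 Readout: T/C, i.e. treated-group measurement over vehicle-control measurement. Endpoint is survival or tumor size in tumor-bearing mice given compound.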

[1] = dose: 30.0 mg/kg/injection, vehicle: saline
[2] = dose: 60.0 mg/kg/injection, vehicle: saline
[3] = dose: 120.0 mg/kg/injection, vehicle: saline
[4] = dose: 240.0 mg/kg/injection, vehicle: saline
[5] = dose: 25.0 mg/kg/injection, vehicle: methylcellulose (MC)
[6] = dose: 25.0 mg/kg/injection, vehicle: carboxymethylcellulose (CMC)
[7] = dose: 100.0 mg/kg/injection, vehicle: carboxymethylcellulose (CMC)
[8] = dose: 200.0 mg/kg/injection, vehicle: carboxymethylcellulose (CMC)
[9] = dose: 15.0 mg/kg/injection, vehicle: methylcellulose (MC)

For Cc1ccc2ccccc2c1CSc1ncnc2nc[nH]c12, the T/C (dose: 10.0 mg/kg/injection, vehicle: methylcellulose (MC)) was 38 % of control, the T/C (dose: 20.0 mg/kg/injection, vehicle: methylcellulose (MC)) was 40 % of control and the T/C (dose: 40.0 mg/kg/injection, vehicle: methylcellulose (MC)) was 11 % of control. For the same compound, the T/C (dose: 80.0 mg/kg/injection, vehicle: methylcellulose (MC)) was 9 % of control.

In the case of O=C1C=CC(=O)O1 (tested in a mixture with another compound), the T/C (dose: 11.0 mg/kg/injection, vehicle: carboxymethylcellulose (CMC)) is reported as 39 % of control and 57 % of control, the T/C (dose: 11.0 mg/kg/injection, vehicle: saline) is reported as 56 % of control and the T/C (dose: 22.0 mg/kg/injection, vehicle: carboxymethylcellulose (CMC)) is reported as 18 % of control and 38 % of control. The T/C (dose: 22.0 mg/kg/injection, vehicle: saline) was 31 % of control and the T/C (dose: 90.0 mg/kg/injection, vehicle: carboxymethylcellulose (CMC)) was 11 % of control and 32 % of control.

With C[N+](C)(C)c1nc(N)nc2c1ncn2C1OC(CO)C(O)C1O (configuration not stated) the T/C [1] was 114 % of control, the T/C [2] was 101 % of control and the T/C [3] was 52 % of control. The T/C [4] was 24 % of control and the T/C (dose: 400.0 mg/kg/injection, vehicle: saline) was 3 % of control.

In the case of OC1C(O)C(O)C2(CO2)C(O)C1O (configuration not stated), the T/C (dose: 300.0 mg/kg/injection, vehicle: saline) is reported as 99 % of control.

With N#CCCn1cnc2c(Cl)ncnc21 the T/C (dose: 50.0 mg/kg/injection, vehicle: other) was 85 % of control, the T/C (dose: 100.0 mg/kg/injection, vehicle: other) was 157 % of control and the T/C (dose: 400.0 mg/kg/injection, vehicle: other) was 98 % of control. For the same compound, the T/C (dose: 600.0 mg/kg/injection, vehicle: other) was 63 % of control and the T/C (dose: 800.0 mg/kg/injection, vehicle: other) was 94 % of control.

With Cn1c(=O)c2[nH]c(CCl)nc2n(C)c1=O the T/C [5] was 86 % of control.

In the case of CC[N+]([O-])(CC)c1n(C)c2c(=O)n(C)c(=O)n(C)c2[n+]1[O-], the T/C (dose: 30.0 mg/kg/injection, vehicle: methylcellulose (MC)) is reported as 93 % of control, the T/C (dose: 60.0 mg/kg/injection, vehicle: methylcellulose (MC)) is reported as 96 % of control and the T/C (dose: 120.0 mg/kg/injection, vehicle: methylcellulose (MC)) is reported as 110 % of control. The T/C (dose: 240.0 mg/kg/injection, vehicle: methylcellulose (MC)) was 70 % of control.

In the case of NC(=O)CSc1nc(N)nc2nc[nH]c12, the T/C (dose: 63.0 mg/kg/injection, vehicle: carboxymethylcellulose (CMC)) is reported as 113 % of control, the T/C (dose: 125.0 mg/kg/injection, vehicle: carboxymethylcellulose (CMC)) is reported as 67 % of control and the T/C (dose: 250.0 mg/kg/injection, vehicle: carboxymethylcellulose (CMC)) is reported as 48 % of control. For the same compound, the T/C (dose: 500.0 mg/kg/injection, vehicle: carboxymethylcellulose (CMC)) was 33 % of control.

With CCCCn1cnc2c(SC3CCCC3)ncnc21 the T/C [6] was 38 % of control, the T/C (dose: 50.0 mg/kg/injection, vehicle: carboxymethylcellulose (CMC)) was 13 % of control and the T/C [7] was 4 % of control. For the same compound, the T/C [8] was 3 % of control.

NS(=O)(=O)c1nc2nc[nH]c(=O)c2[nH]1 was tested, and the T/C (dose: 30.0 mg/kg/injection, vehicle: carboxymethylcellulose (CMC)) was 113 % of control, the T/C (dose: 60.0 mg/kg/injection, vehicle: carboxymethylcellulose (CMC)) was 163 % of control and the T/C (dose: 120.0 mg/kg/injection, vehicle: carboxymethylcellulose (CMC)) was 104 % of control. The T/C (dose: 240.0 mg/kg/injection, vehicle: carboxymethylcellulose (CMC)) was 113 % of control.

In the case of O=C(Nc1ccc2c(O)c(N=Nc3ccccc3)c(S(=O)(=O)O)cc2c1)Nc1ccc2c(O)c(N=Nc3ccc4cc(S(=O)(=O)O)ccc4c3)c(S(=O)(=O)O)cc2c1, the T/C (dose: 45.0 mg/kg/injection, vehicle: carboxymethylcellulose (CMC)) is reported as 47 % of control.

For CCOc1nc(N)nc2n[nH]nc12, the T/C (dose: 75.0 mg/kg/injection, vehicle: carboxymethylcellulose (CMC)) was 67 % of control and the T/C (dose: 150.0 mg/kg/injection, vehicle: carboxymethylcellulose (CMC)) was 9 % of control.

In the case of CCC(C)Cn1cnc2c(=S)nc(N)[nH]c21 (configuration not stated), the T/C [9] is reported as 2 % of control.

For CCC(=O)OCC1OC(n2cnc3c(=S)nc(N)[nH]c32)C(OC(=O)CC)C1OC(=O)CC (configuration not stated), the T/C (dose: 1.5 mg/kg/injection, vehicle: carboxymethylcellulose (CMC)) was 96 % of control, the T/C (dose: 3.0 mg/kg/injection, vehicle: carboxymethylcellulose (CMC)) was 17 % of control and the T/C (dose: 6.0 mg/kg/injection, vehicle: carboxymethylcellulose (CMC)) was 3 % of control. The T/C (dose: 12.0 mg/kg/injection, vehicle: carboxymethylcellulose (CMC)) was 1 % of control.

With CC(=O)OCC1OC(n2cnc3c(=O)[nH]c(=O)[nH]c32)C(OC(C)=O)C1OC(C)=O (configuration not stated) the T/C [1] was 101 % of control, the T/C [2] was 103 % of control and the T/C [3] was 86 % of control. For the same compound, the T/C [4] was 112 % of control.

With CN1CCC(OC(N)=O)CC1 the T/C (dose: 44.0 mg/kg/injection, vehicle: carboxymethylcellulose (CMC)) was 84 % of control, the T/C (dose: 87.5 mg/kg/injection, vehicle: carboxymethylcellulose (CMC)) was 96 % of control and the T/C [7] was 70 % of control. For the same compound, the T/C (dose: 155.0 mg/kg/injection, vehicle: carboxymethylcellulose (CMC)) was 54 % of control, the T/C (dose: 175.0 mg/kg/injection, vehicle: carboxymethylcellulose (CMC)) was 65 % of control and the T/C (dose: 230.0 mg/kg/injection, vehicle: carboxymethylcellulose (CMC)) was 46 % of control. For the same compound, the T/C (dose: 525.0 mg/kg/injection, vehicle: carboxymethylcellulose (CMC)) was 43 % of control.

In the case of Nc1ccc2cc3ccccc3cc2c1, the T/C (dose: 10.0 mg/kg/injection, vehicle: saline) is reported as 80 % of control, the T/C (dose: 10.5 mg/kg/injection, vehicle: carboxymethylcellulose (CMC)) is reported as 62 % of control and the T/C (dose: 21.0 mg/kg/injection, vehicle: carboxymethylcellulose (CMC)) is reported as 40 % of control. The T/C (dose: 21.0 mg/kg/injection, vehicle: saline) was 41 % of control, the T/C (dose: 42.0 mg/kg/injection, vehicle: saline) was 37 % of control and the T/C (dose: 84.0 mg/kg/injection, vehicle: saline) was 29 % of control.

CCOc1ccccc1Nc1nc(N)nc(Cl)c1CC was tested, and the T/C [9] was 73 % of control, the T/C (dose: 31.0 mg/kg/injection, vehicle: methylcellulose (MC)) was 79 % of control and the T/C (dose: 62.0 mg/kg/injection, vehicle: methylcellulose (MC)) was 87 % of control. For the same compound, the T/C (dose: 125.0 mg/kg/injection, vehicle: methylcellulose (MC)) was 98 % of control and the T/C (dose: 250.0 mg/kg/injection, vehicle: methylcellulose (MC)) was 100 % of control.

Cc1ccc(C(=O)Nc2ccc(S(=O)(=O)O)c3cc(S(=O)(=O)O)cc(S(=O)(=O)O)c23)cc1NC(=O)c1cccc(NC(=O)Nc2cccc(C(=O)Nc3cc(C(=O)Nc4ccc(S(=O)(=O)O)c5cc(S(=O)(=O)O)cc(S(=O)(=O)O)c45)ccc3C)c2)c1 (tested in a mixture with another compound) was tested, and the T/C (dose: 170.0 mg/kg/injection, vehicle: methylcellulose (MC)) was 88 % of control and 82 % of control and the T/C (dose: 680.0 mg/kg/injection, vehicle: methylcellulose (MC)) was 98 % of control.

For Oc1ccc2ccccc2c1N=Nc1ccc(N=Nc2ccccc2)cc1, the T/C [6] was 121 % of control, the T/C [7] was 116 % of control and the T/C [8] was 108 % of control.

CS(=O)(=O)OCCCCCOS(C)(=O)=O was tested, and the T/C (dose: 4.5 mg/kg/injection, vehicle: carboxymethylcellulose (CMC)) was 110 % of control, the T/C (dose: 9.0 mg/kg/injection, vehicle: carboxymethylcellulose (CMC)) was 86 % of control and the T/C (dose: 18.0 mg/kg/injection, vehicle: carboxymethylcellulose (CMC)) was 67 % of control. For the same compound, the T/C [5] was 11 % of control and the T/C (dose: 37.0 mg/kg/injection, vehicle: carboxymethylcellulose (CMC)) was 3 % of control.

From PubChem BioAssay AID180 (DTP/NCI, 2004)
